# Values of other authors in US9884844B2 (priority 2012, dated 2018).
# Conditions: rather increase it at high dose
smiles,measurement,value
O=C1NCN(c2ccccc2)C12CCN([C@@H]1CC[C@H]3CCCc4cccc1c43)CC2 [Ro64-6198],effect on alcohol drinking,failed to decrease alcohol drinking
